These results are taken from ChEMBL document CHEMBL3352398, “2-(2-Bromophenyl)-formononetin and 2-heptyl-formononetin are PPARγ partial agonists and reduce lipid accumulation in 3T3-L1 adipocytes” (Bioorg Med Chem, 2014).

The source made the active and inactive calls. The rule behind the calls is not given here.

Series [1] can be described thus: Cytotoxicity against mouse 3T3L1 cells assessed as effect on lactate dehydrogenase release at 5 to 50 uM measured on day 8. Format: cell-based. Conditions: 3t3-l1, 50 µM.
Series [2] concerns 3T3-L1. The experiment in a line: Effect on adipogenesis in mouse 3T3L1 cells assessed as reduction in Pparg gene expression at 5 to 50 uM after 8 days by real time quantitative PCR analysis relative to vehicle-treated control. Format: functional, cell-based.
The subject of series [3] is 3T3-L1. Nature of the series: Effect on adipogenesis in mouse 3T3L1 cells assessed as increase in Srebf1 gene expression at 5 to 50 uM after 8 days by real time quantitative PCR analysis relative to vehicle-treated control. Format: functional, cell-based.
Series [4] has as its system 3T3-L1. Nature of the series: Effect on adipogenesis in mouse 3T3L1 cells assessed as reduction in Fabp4 gene expression at 5 to 50 uM after 8 days by real time quantitative PCR analysis relative to vehicle-treated control. In kind it is functional, cell-based.
Series [5] has as its system 3T3-L1. The experiment in a line: Effect on adipogenesis in mouse 3T3L1 cells assessed as reduction in Pparg gene expression at 5 to 50 uM after 4 days by real time quantitative PCR analysis relative to vehicle-treated control. In kind it is functional, cell-based.
The test system of series [6] is 3T3-L1. The experiment in a line: Effect on adipogenesis in mouse 3T3L1 cells assessed as reduction in Cebpa gene expression at 5 to 50 uM after 4 days by real time quantitative PCR analysis relative to vehicle-treated control. Format: functional, cell-based.
Series [7] concerns 3T3-L1. Nature of the series: Effect on adipogenesis in mouse 3T3L1 cells assessed as reduction in Srebf1 gene expression at 5 to 50 uM after 4 days by real time quantitative PCR analysis relative to vehicle-treated control. Format: functional, cell-based.
Series [8] has as its system 3T3-L1. Nature of the series: Effect on adipogenesis in mouse 3T3L1 cells in DI media assessed as increase in lipid accumulation at <25 uM after 8 days by fluorescence-based AdipoRed assay. Format: functional, cell-based.
The subject of series [9] is 3T3-L1. Nature of the series: Effect on adipogenesis in mouse 3T3L1 cells in DI media assessed as reduction in lipid accumulation at 50 uM measured on day 8 by fluorescence-based AdipoRed assay. In kind it is functional, cell-based.
Series [10] has as its system 3T3-L1. Nature of the series: Effect on adipogenesis in mouse 3T3L1 cells in DI media assessed as reduction in fat-laden mature adipocytes at 50 uM after 8 days by oil red o assay. Format: functional, cell-based.
Series [11] concerns 3T3-L1. The experiment in a line: Reduction in triglyceride release in mouse 3T3L1 cells at 50 uM after 48 hrs by fluorescence-based AdipoRed assay. In kind it is functional, cell-based.
Series [12] relates to 3T3-L1. The experiment in a line: Reduction in triglyceride release in mouse 3T3L1 cells at 50 uM after 48 hrs by oil red o assay. Format: functional, cell-based.
Series [13] deals with 3T3-L1. Nature of the series: Induction of lipolysis in mouse 3T3L1 cells assessed as increase in glycerol level at 50 uM after 48 hrs by UV-Vis spectrophotometry. Format: functional.
Series [14] concerns 3T3-L1. Nature of the series: Reduction in lipogenesis in mouse 3T3L1 cells assessed as down regulation of Srebf1 gene exression by real time-qPCR analysis. In kind it is functional, cell-based. In general terms: In qPCR the cycle at which signal appears reflects the starting amount.
The test system of series [15] is 3T3-L1. The experiment in a line: Reduction in lipogenesis in mouse 3T3L1 cells assessed as down regulation of Acaca gene exression by real time-qPCR analysis. Format: functional, cell-based.
Series [16] has as its system 3T3-L1. The experiment in a line: Reduction in lipogenesis in mouse 3T3L1 cells assessed as down regulation of Scd1 gene exression by real time-qPCR analysis. In kind it is functional, cell-based.
Series [17] concerns 3T3-L1. The experiment in a line: Induction of lipolysis in mouse 3T3L1 cells assessed as up-regulation of Atgl gene exression by real time-qPCR analysis. In kind it is functional, cell-based.
Series [18] deals with 3T3-L1. The experiment in a line: Induction of lipolysis in mouse 3T3L1 cells assessed as up-regulation of Acox1 gene exression by real time-qPCR analysis. Format: functional, cell-based.
The target in series [19] is T1, Peroxisome proliferator-activated receptor gamma (Mus musculus) (UniProt P37238).
T1 sequence (whole entry): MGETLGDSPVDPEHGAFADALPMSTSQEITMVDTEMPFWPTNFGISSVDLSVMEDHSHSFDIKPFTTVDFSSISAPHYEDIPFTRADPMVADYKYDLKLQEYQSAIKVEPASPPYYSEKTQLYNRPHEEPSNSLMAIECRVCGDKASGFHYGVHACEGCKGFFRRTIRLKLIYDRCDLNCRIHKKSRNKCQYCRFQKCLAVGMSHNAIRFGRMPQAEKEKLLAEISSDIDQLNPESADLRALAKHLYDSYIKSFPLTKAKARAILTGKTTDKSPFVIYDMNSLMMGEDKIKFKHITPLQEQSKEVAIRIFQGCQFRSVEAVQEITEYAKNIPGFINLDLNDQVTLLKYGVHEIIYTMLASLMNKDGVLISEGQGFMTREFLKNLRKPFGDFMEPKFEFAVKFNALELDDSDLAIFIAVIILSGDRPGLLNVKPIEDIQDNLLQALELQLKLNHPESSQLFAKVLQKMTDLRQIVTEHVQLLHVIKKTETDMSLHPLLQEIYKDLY
Nature of the series: Agonist activity at PPAR-gamma in mouse embryo fibroblast at 5 to 50 uM by transactivation assay relative to rosiglitazone.

In series [20] the target is T2, Peroxisome proliferator-activated receptor alpha (Homo sapiens) (UniProt Q07869).
T2 sequence (whole entry): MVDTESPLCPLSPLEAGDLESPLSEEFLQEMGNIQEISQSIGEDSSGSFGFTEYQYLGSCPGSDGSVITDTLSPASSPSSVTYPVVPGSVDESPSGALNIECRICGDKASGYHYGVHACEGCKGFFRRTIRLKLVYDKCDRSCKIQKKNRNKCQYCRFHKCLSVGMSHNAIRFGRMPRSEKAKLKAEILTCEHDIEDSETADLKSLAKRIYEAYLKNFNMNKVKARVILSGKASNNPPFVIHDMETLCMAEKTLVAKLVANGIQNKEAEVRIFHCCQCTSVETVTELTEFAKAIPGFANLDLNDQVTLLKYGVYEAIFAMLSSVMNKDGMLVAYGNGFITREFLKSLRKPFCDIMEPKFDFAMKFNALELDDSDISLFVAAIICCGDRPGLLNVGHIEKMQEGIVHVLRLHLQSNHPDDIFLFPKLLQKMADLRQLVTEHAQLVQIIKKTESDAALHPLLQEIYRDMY
Nature of the series: Agonist activity at PPAR-alpha (unknown origin) by transactivation assay.

Series [21] concerns the target T3, Peroxisome proliferator-activated receptor delta (Homo sapiens) (UniProt Q03181).
T3 sequence (whole entry): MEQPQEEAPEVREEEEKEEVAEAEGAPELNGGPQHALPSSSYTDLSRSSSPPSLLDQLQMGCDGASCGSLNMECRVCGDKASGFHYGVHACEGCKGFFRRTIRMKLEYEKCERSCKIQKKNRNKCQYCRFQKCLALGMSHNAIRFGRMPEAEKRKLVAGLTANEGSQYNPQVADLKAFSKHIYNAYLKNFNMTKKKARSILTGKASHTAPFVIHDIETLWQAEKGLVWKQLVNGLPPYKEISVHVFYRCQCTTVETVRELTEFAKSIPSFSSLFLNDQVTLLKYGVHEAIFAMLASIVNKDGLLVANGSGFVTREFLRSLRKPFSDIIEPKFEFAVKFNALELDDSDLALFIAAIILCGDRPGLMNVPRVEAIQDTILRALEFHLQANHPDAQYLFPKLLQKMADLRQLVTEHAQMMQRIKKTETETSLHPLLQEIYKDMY
The experiment in a line: Agonist activity at PPAR-delta (unknown origin) by transactivation assay.

For series [22], the system named is 3T3-L1. The experiment in a line: Activation of AMPK in mouse 3T3L1 cells assessed as AMPK phosphorylation at 50 uM after 5 to 48 hrs by Western blotting analysis. In kind it is cell-based. For orientation: Immunoblotting shows a protein as a band on a membrane.

Take `CCCCCCCc1oc2cc(O)ccc2c(=O)c1-c1ccc(OC)cc1`: the Activity result was “Non-toxic” in series [1]; “Dose-dependent effect” in series [2]; “Dose-dependent effect” in series [3]; “Dose-dependent effect” in series [5]; “Dose-dependent effect” in series [6]; “Dose-dependent effect” in [7]. Besides, the Activity in series [19] was determined as 33%. For the same molecule, the result in series [4], in series [20], in series [21] and in series [22] was inactive. Moreover, the result in [8], in series [9], in series [10], in series [11], in series [12] and in [14] was Active. The result in series [15], in [16], in [17] and in series [18] was Active. For the same molecule, the “fold change (FC)” value in series [13] is 2.
